Reference: PubChem BioAssay (NCI)
Values joined by “and” are separate entries in the source; they are usually repeats but may differ in a detail not shown here. Identical values can stand only once.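 Briefly, cells in 96-well plates were exposed to five compound concentrations for 48 h, and endpoints were estimated by linear interpolation. The concentration for 50% growth inhibition is given as GI50. At the TGI there is no net growth.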

How the values were obtained:
Assay in all cases: NCI-60 cell line screen, 48 h
HS 578T breast = test system: HS 578T breast
HT29 colon = test system: HT29 colon
RPMI-8226 leukemia = test system: RPMI-8226 leukemia
RXF 393 renal = test system: RXF 393 renal
NCI-H522 lung = test system: NCI-H522 lung
NCI-H460 lung = test system: NCI-H460 lung
SNB-75 CNS = test system: SNB-75 CNS
T-47D breast = test system: T-47D breast
NCI-H226 lung = test system: NCI-H226 lung
HCC-2998 colon = test system: HCC-2998 colon
A498 renal = test system: A498 renal
ACHN renal = test system: ACHN renal
HCT-15 colon = test system: HCT-15 colon
BT-549 breast = test system: BT-549 breast
UO-31 renal = test system: UO-31 renal
OVCAR-4 ovarian = test system: OVCAR-4 ovarian
EKVX NSCLC = test system: EKVX NSCLC
SF-295 CNS = test system: SF-295 CNS
HCT-116 colon = test system: HCT-116 colon
UACC-62 melanoma = test system: UACC-62 melanoma
SK-MEL-2 melanoma = test system: SK-MEL-2 melanoma
MCF7 breast = test system: MCF7 breast
PC-3 prostate = test system: PC-3 prostate
SK-OV-3 ovarian = test system: SK-OV-3 ovarian
SNB-19 CNS = test system: SNB-19 CNS
LOX IMVI melanoma = test system: LOX IMVI melanoma
K-562 leukemia = test system: K-562 leukemia
NCI-H23 lung = test system: NCI-H23 lung
U251 CNS = test system: U251 CNS
OVCAR-3 ovarian = test system: OVCAR-3 ovarian
M14 melanoma = test system: M14 melanoma
OVCAR-5 ovarian = test system: OVCAR-5 ovarian
KM12 colon = test system: KM12 colon
SW-620 colon = test system: SW-620 colon
A549 NSCLC = test system: A549 NSCLC
SR leukemia = test system: SR leukemia
IGROV1 ovarian = test system: IGROV1 ovarian
SK-MEL-5 melanoma = test system: SK-MEL-5 melanoma
SN12C renal = test system: SN12C renal
SK-MEL-28 melanoma = test system: SK-MEL-28 melanoma
MALME-3M melanoma = test system: MALME-3M melanoma
UACC-257 melanoma = test system: UACC-257 melanoma
MDA-MB-231 breast = test system: MDA-MB-231 breast
MOLT-4 leukemia = test system: MOLT-4 leukemia
MDA-MB-435 = test system: MDA-MB-435
NCI/ADR-RES ovarian = test system: NCI/ADR-RES ovarian
COLO 205 colon = test system: COLO 205 colon
SF-268 CNS = test system: SF-268 CNS
HL-60(TB) leukemia = test system: HL-60(TB) leukemia
HOP-92 NSCLC = test system: HOP-92 NSCLC
OVCAR-8 ovarian = test system: OVCAR-8 ovarian
CAKI-1 renal = test system: CAKI-1 renal
786-0 renal = test system: 786-0 renal
DU-145 prostate = test system: DU-145 prostate
TK-10 renal = test system: TK-10 renal
SF-539 CNS = test system: SF-539 CNS
HOP-62 NSCLC = test system: HOP-62 NSCLC

For COc1cccc(/C=C/C(=O)N2CC(CCl)c3c2cc(N)c2ccccc32)c1 (stereo not drawn), the TGI (HS 578T breast) was 0.0409 µM, the TGI (HT29 colon) was 20 µM and the TGI (RPMI-8226 leukemia) was greater than 100 µM. For the same molecule, the TGI (RXF 393 renal) was 0.00342 µM, the TGI (NCI-H522 lung) was 0.00889 µM and the TGI (NCI-H460 lung) was 0.00325 µM. The TGI (SNB-75 CNS) was 0.0153 µM, the TGI (T-47D breast) was 3.59 µM and the TGI (NCI-H226 lung) was 0.0425 µM. It also gave a TGI (HCC-2998 colon) of 0.0166 µM, a TGI (A498 renal) of 0.0342 µM and a TGI (ACHN renal) of 0.0024 µM. It also gave a TGI (HCT-15 colon) of 0.224 µM, a GI50 (BT-549 breast) of 0.0142 µM and a TGI (UO-31 renal) greater than 100 µM. For the same molecule, the TGI (OVCAR-4 ovarian) was 0.141 µM, the TGI (EKVX NSCLC) was 0.145 µM and 0.0415 µM and the TGI (SF-295 CNS) was 0.00953 µM. The TGI (HCT-116 colon) was 1.27 µM, the TGI (UACC-62 melanoma) was 0.0224 µM and the TGI (SK-MEL-2 melanoma) was 0.0224 µM. The TGI (MCF7 breast) was 0.00568 µM, the TGI (PC-3 prostate) was 0.0562 µM and 0.132 µM and the TGI (SK-OV-3 ovarian) was 1.16 µM. It also gave a TGI (SNB-19 CNS) greater than 100 µM, a TGI (LOX IMVI melanoma) of 0.0065 µM and a TGI (K-562 leukemia) greater than 100 µM. It also gave a TGI (NCI-H23 lung) of 0.0124 µM, a TGI (U251 CNS) of 0.37 µM and a TGI (OVCAR-3 ovarian) of 1.72 µM. The TGI (M14 melanoma) was 0.105 µM, the TGI (OVCAR-5 ovarian) was 1.5 µM and the TGI (KM12 colon) was 0.0352 µM and 0.161 µM. For the same molecule, the TGI (SW-620 colon) was greater than 100 µM.

For Cc1ccc2c(c1)C(O)(c1ccccc1)CCS2 (stereo not drawn), the TGI (HS 578T breast) was greater than 100 µM, the TGI (HT29 colon) was 66 µM and the TGI (A549 NSCLC) was greater than 100 µM. For the same molecule, the TGI (RXF 393 renal) was greater than 100 µM, the TGI (SR leukemia) was 40.3 µM and the TGI (NCI-H522 lung) was 44.6 µM. For the same molecule, the TGI (NCI-H460 lung) was greater than 100 µM, the TGI (SNB-75 CNS) was greater than 100 µM and the TGI (IGROV1 ovarian) was 65.7 µM. It also gave a TGI (T-47D breast) greater than 100 µM, a TGI (NCI-H226 lung) of 82.4 µM and a TGI (SK-MEL-5 melanoma) greater than 100 µM. It also gave a TGI (ACHN renal) of 62.6 µM, a TGI (HCT-15 colon) of 42.4 µM and a TGI (SN12C renal) greater than 100 µM. It also gave a TGI (SK-MEL-28 melanoma) greater than 100 µM, a TGI (BT-549 breast) of 93.6 µM and a TGI (MALME-3M melanoma) of 93.5 µM. It also gave a TGI (UO-31 renal) of 48.7 µM, a TGI (UACC-257 melanoma) greater than 100 µM and a TGI (OVCAR-4 ovarian) greater than 100 µM. The TGI (EKVX NSCLC) was greater than 100 µM, the TGI (MDA-MB-231 breast) was 39.8 µM and the TGI (SF-295 CNS) was 80.3 µM. For the same molecule, the TGI (HCT-116 colon) was 42.5 µM, the TGI (MOLT-4 leukemia) was 44.7 µM and the TGI (UACC-62 melanoma) was 52.7 µM. For the same molecule, the TGI (MDA-MB-435) was 73.2 µM, the TGI (NCI/ADR-RES ovarian) was greater than 100 µM and the TGI (SK-MEL-2 melanoma) was 80.4 µM. The TGI (MCF7 breast) was greater than 100 µM, the TGI (COLO 205 colon) was greater than 100 µM and the TGI (PC-3 prostate) was greater than 100 µM. It also gave a TGI (SK-OV-3 ovarian) greater than 100 µM, a TGI (SNB-19 CNS) greater than 100 µM and a TGI (SF-268 CNS) greater than 100 µM. It also gave a TGI (HL-60(TB) leukemia) of 89.6 µM, a TGI (LOX IMVI melanoma) of 36 µM and a TGI (K-562 leukemia) greater than 100 µM. The TGI (NCI-H23 lung) was 89.9 µM, the TGI (HOP-92 NSCLC) was 77.9 µM and the TGI (OVCAR-8 ovarian) was greater than 100 µM. The TGI (CAKI-1 renal) was 53.6 µM, the TGI (786-0 renal) was greater than 100 µM and the TGI (U251 CNS) was 45.8 µM. The TGI (OVCAR-3 ovarian) was 46.9 µM, the TGI (DU-145 prostate) was greater than 100 µM and the TGI (M14 melanoma) was 66.9 µM. It also gave a TGI (OVCAR-5 ovarian) of 80.6 µM, a TGI (KM12 colon) of 54.9 µM and a TGI (TK-10 renal) of 78.6 µM. For the same molecule, the TGI (SW-620 colon) was greater than 100 µM, the TGI (SF-539 CNS) was 55 µM and the TGI (HOP-62 NSCLC) was greater than 100 µM.
